Where two headings read alike, the source gives them in different places.

Two compounds from publication PMC5862592, “CDK8/19 inhibition induces premature G1/S transition and ATR-dependent cell death in prostate cancer cells” (Oncotarget, 2018) can be followed below.

Holding throughout (assay): biochemical
Common to all, as to parameters: KINOMEscan active site-directed competition binding assay (DiscoveRx), 456 kinases, per cent of control at 300 nM
What all share (details): read-out: Percent of Control (%)

In one assay the target is DAPK2 (Homo sapiens, UniProt Q9UIK4). An outline of the steps: (§1)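 Kinase panel (456 enzymes) profiled by competitive displacement at the active site; compounds run at 300 nmol/L.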
The target of a further assay is TLK1 (Homo sapiens, UniProt Q9UKI8). An outline of the steps:
as §1

In another assay the target is RET(V804M) (Homo sapiens, UniProt P07949, V804M). Summed up: as §1
Chain of RET(V804M) (P07949 whole entry V804M): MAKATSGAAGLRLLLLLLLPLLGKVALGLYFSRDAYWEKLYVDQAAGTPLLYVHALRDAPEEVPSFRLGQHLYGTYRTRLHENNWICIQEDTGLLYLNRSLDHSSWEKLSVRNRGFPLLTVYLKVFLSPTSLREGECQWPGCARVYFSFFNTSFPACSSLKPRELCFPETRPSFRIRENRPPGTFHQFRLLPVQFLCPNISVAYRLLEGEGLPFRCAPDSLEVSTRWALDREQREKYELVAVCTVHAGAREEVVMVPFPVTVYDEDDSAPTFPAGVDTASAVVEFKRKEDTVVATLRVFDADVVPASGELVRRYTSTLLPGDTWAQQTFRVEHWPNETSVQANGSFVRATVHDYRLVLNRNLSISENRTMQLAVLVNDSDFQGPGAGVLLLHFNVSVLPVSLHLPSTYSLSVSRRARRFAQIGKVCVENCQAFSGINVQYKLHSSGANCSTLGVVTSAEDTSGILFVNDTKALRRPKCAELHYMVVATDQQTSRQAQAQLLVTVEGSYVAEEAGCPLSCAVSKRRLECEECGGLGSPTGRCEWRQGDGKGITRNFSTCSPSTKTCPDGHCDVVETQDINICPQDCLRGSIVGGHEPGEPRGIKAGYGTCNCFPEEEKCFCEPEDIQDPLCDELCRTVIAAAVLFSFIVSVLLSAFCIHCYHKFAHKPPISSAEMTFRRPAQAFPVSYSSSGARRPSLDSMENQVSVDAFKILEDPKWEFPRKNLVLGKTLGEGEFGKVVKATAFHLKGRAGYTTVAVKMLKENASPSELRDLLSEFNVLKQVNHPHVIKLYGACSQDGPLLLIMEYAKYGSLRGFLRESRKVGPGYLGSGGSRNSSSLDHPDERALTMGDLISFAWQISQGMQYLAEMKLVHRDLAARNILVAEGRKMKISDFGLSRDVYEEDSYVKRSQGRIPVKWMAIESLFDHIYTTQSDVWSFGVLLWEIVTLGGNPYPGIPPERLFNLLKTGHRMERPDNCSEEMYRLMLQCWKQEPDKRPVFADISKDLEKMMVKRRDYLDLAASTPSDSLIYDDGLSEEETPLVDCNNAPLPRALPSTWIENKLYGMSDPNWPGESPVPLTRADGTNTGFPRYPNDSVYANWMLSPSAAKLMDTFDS
For a further assay, the target named is T1, JNK3 (Homo sapiens, UniProt P53779).
T1 construct: gene MAPK10
Summed up:
as §1

The target in the next assay is KIT(L576P) (Homo sapiens, UniProt P10721, L576P). An outline of the steps:
as §1

The next assay addresses MTOR (Homo sapiens, UniProt P42345). An outline of the steps: as §1
Another assay has as its target DYRK1A (Homo sapiens, UniProt Q13627). Summed up:
as §1

Another assay addresses T2, PKAC-beta (Homo sapiens, UniProt P22694).
T2 construct: gene PRKACB
An outline of the steps: as §1

The next assay concerns the target T3, PFPK5(P.falciparum) (Plasmodium falciparum, UniProt P61075).
T3 construct: gene MAL13P1.279
An outline of the steps:
as §1

Another assay has as its target ROS1 (Homo sapiens, UniProt P08922). An outline of the steps: as §1
The next assay addresses NEK4 (Homo sapiens, UniProt P51957). Summed up:
as §1

Another assay has as its target FLT3(D835H) (Homo sapiens, UniProt P36888, D835H). Summed up: as §1
Assay [1] concerns the target T4, RSK2(Kin.Dom.1-N-terminal) (Homo sapiens, UniProt P51812).
T4 construct: gene RPS6KA3; Kin.Dom.1-N-terminal
An outline of the steps: as §1

For a further assay, the target named is T5, CTK (Homo sapiens, UniProt P42679).
T5 construct: gene MATK
Summed up:
as §1

The next assay concerns the target T6, PCTK2 (Homo sapiens, UniProt Q00537).
T6 construct: gene CDK17
An outline of the steps:
as §1

A further assay addresses T7, MEK6 (Homo sapiens, UniProt P52564).
T7 construct: gene MAP2K6
An outline of the steps:
as §1

A further assay concerns the target INSR (Homo sapiens, UniProt P06213). Summed up: as §1
Another assay concerns the target EGFR (Homo sapiens, UniProt P00533). Summed up: as §1
In another assay the target is T8, ASK2 (Homo sapiens, UniProt O95382).
T8 construct: gene MAP3K6
T8 sequence (O95382 whole entry): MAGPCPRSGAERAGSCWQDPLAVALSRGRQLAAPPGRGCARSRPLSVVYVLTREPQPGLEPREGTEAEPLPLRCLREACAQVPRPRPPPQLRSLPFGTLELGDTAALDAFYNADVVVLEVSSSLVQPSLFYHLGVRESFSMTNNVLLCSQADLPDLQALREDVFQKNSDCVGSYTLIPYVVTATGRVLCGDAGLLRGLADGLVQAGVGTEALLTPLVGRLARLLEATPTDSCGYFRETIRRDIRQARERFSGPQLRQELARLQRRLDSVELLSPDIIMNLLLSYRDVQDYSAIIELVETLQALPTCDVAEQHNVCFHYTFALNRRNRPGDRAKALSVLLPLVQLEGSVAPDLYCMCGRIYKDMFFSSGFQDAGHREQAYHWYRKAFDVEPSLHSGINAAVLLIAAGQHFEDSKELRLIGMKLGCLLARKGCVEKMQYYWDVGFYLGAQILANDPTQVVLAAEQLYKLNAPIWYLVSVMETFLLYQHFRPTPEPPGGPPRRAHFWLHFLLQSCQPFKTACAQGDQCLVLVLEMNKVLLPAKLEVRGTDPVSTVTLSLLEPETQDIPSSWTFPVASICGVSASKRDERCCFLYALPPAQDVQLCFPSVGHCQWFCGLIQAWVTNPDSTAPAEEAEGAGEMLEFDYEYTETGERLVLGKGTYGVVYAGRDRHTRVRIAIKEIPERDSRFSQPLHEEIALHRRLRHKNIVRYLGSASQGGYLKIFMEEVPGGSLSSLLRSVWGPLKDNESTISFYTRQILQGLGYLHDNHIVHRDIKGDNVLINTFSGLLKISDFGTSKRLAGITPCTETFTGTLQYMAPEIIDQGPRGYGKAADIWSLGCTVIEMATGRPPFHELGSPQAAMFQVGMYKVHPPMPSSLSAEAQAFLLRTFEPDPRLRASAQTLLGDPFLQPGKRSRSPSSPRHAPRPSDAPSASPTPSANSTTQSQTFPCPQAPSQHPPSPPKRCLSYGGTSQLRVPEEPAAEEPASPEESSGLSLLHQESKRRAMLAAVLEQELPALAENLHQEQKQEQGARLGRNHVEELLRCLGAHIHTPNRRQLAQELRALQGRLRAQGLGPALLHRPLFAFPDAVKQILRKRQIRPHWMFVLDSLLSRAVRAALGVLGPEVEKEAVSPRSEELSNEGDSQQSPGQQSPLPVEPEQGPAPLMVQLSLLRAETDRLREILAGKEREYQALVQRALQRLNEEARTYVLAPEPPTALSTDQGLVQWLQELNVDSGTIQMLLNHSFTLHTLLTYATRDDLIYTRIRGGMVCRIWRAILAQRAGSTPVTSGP
Summed up: as §1

For a further assay, the target named is T9, PYK2 (Homo sapiens, UniProt Q14289).
T9 construct: gene PTK2B
An outline of the steps:
as §1

In a further assay the target is T10, YANK2 (Homo sapiens, UniProt Q9NY57).
T10 construct: gene STK32B
An outline of the steps: as §1

Chain of KIT(L576P) (P10721 whole entry L576P): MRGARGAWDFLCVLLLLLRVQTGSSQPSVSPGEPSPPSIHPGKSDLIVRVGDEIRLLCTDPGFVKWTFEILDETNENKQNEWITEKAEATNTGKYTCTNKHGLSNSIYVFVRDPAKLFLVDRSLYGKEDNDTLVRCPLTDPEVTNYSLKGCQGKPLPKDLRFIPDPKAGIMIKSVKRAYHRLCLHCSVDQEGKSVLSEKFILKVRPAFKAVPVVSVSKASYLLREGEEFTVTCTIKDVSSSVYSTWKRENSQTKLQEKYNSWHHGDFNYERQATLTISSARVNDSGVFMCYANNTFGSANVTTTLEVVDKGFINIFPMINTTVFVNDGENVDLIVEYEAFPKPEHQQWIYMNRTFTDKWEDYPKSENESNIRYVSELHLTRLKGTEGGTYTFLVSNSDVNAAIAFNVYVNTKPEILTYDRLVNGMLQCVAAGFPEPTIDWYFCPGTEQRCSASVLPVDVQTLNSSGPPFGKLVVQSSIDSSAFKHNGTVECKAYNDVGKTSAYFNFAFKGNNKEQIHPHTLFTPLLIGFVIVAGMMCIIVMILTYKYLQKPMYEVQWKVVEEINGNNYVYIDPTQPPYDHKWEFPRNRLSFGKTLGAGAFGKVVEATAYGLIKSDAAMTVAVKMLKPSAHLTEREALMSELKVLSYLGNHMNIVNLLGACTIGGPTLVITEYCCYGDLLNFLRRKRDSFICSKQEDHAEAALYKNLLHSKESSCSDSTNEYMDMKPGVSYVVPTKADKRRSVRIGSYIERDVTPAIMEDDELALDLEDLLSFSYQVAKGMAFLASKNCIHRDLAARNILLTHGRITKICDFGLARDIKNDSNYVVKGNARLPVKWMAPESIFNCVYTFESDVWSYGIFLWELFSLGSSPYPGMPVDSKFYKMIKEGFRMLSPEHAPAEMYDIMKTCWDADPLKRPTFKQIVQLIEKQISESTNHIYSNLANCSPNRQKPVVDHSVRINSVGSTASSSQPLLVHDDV
Chain of NEK4 (P51957 whole entry): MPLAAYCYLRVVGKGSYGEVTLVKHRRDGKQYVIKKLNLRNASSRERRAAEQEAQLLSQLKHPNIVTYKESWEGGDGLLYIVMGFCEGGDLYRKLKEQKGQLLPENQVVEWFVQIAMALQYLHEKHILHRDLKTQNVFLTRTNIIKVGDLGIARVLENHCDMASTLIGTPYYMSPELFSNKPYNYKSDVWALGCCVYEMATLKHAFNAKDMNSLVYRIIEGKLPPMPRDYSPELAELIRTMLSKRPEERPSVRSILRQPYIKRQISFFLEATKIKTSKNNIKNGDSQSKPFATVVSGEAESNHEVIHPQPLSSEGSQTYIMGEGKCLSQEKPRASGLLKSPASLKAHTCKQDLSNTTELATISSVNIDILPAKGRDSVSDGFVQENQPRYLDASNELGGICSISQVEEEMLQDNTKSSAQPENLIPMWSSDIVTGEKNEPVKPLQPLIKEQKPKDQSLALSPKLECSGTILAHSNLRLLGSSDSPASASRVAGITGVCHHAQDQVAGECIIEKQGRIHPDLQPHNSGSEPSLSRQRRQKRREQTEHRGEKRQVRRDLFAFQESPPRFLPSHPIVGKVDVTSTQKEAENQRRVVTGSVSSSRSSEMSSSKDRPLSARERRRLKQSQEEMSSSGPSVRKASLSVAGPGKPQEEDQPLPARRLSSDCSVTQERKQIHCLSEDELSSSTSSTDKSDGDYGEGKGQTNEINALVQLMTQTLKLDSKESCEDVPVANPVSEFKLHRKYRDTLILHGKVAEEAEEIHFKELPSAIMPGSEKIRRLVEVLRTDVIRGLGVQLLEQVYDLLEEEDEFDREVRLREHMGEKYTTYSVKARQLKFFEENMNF
T4 sequence (P51812 whole entry): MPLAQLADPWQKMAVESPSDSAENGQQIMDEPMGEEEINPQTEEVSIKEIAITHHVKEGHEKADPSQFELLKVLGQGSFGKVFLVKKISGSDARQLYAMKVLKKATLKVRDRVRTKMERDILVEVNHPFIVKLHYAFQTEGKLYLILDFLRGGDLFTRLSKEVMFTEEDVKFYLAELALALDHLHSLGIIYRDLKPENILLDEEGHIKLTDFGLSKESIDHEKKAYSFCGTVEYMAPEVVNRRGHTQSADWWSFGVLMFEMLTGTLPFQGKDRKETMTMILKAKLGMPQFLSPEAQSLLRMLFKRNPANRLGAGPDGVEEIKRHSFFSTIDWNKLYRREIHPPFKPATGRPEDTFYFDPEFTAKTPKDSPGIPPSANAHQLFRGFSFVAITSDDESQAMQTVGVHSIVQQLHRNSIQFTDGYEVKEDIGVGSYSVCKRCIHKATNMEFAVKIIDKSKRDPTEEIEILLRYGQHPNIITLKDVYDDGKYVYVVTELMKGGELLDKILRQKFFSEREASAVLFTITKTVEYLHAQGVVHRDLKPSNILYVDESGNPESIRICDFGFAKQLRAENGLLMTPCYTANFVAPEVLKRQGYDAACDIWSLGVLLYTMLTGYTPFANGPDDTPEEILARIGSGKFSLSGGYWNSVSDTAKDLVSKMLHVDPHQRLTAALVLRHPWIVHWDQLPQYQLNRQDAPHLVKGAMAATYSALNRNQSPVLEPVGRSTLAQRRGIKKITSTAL

In the case of `Cc1ncccc1Oc1sc(C(N)=O)c2c1-c1c(cnn1C)CC2` [T-474, 1-methyl-8-((2-methylpyridin-3-yl)oxy)-4,5-dihydro-1H-thieno[3,4-g]indazole-6-carboxamide], the remaining binding at 0.3 µM on DAPK2 is 100%; on TLK1, 100%; on RET(V804M), 100%; at JNK3, 97%; on KIT(L576P), 100%; at MTOR, 82%. For the same compound, the remaining binding at 0.3 µM was found to be 66% at DYRK1A; 100% at PKAC-beta; 95% at PFPK5(P.falciparum); 100% on ROS1; 100% on NEK4; 58% on FLT3(D835H). For the same compound, the remaining binding at 0.3 µM in assay [1] came out at 100%; on CTK it was 100%; on PCTK2, 100%; at MEK6, 92%; at INSR, 66%; at EGFR, 61%. The remaining binding at 0.3 µM on ASK2, on PYK2 and on YANK2 was 100% throughout.
As for `O=C(/C=C/c1cnccc1-c1ccc(F)cc1)Nc1ccc(CCc2nnco2)cc1` [T-418, (2E)-3-(4-(4-fluorophenyl)pyridin-3-yl)-N-(4-(2-(1,3,4-oxadiazol-2-yl)ethyl)phenyl)acrylamide], the remaining binding at 0.3 µM on DAPK2 (sheet T-418) was 87%; on TLK1 (sheet T-418), 100%; on RET(V804M) (sheet T-418), 100%; on JNK3 (sheet T-418), 94%; on KIT(L576P) (sheet T-418), 100%; at MTOR (sheet T-418), 100%. In addition, the remaining binding at 0.3 µM at DYRK1A (sheet T-418) is 100%; on PKAC-beta (sheet T-418) it was 88%; on PFPK5(P.falciparum) (sheet T-418), 76%; at ROS1 (sheet T-418) it was 100%; at NEK4 (sheet T-418) it was 100%; at FLT3(D835H) (sheet T-418), 100%. Moreover, the remaining binding at 0.3 µM in assay [1] (sheet T-418) amounted to 100%; on CTK (sheet T-418) it was 100%; at PCTK2 (sheet T-418) it was 100%; at MEK6 (sheet T-418), 99%; at INSR (sheet T-418), 69%; at EGFR (sheet T-418), 59%. Further, the remaining binding at 0.3 µM was 94% on ASK2 (sheet T-418), 88% at PYK2 (sheet T-418) and 78% at YANK2 (sheet T-418).
